Results: US20240368104A1, “Novel Dialkoxynaphtho[2,3-C]Furan-1(3H)-One Derivatives and Pharmaceutical Composition For Preventing or Treating Respiratory Disease or SARS-COV-2 Infection Disease, Comprising Same” (priority 2021, published 2024)
Read-outs that look alike come from different tables or passages of the source.

How the values were obtained:
in vitro = conditions: African green monkey
[1] = system: IL-5 expression in Th2 cells; test: Inhibition of IL-5 expression in Th2 cells (ELISA); type: cell-based, Balb/C mice; conditions: Splenocyte, read-out: Inhibitory ability against IL-5 expression (%)
Description: Specifically, after spleens were collected from Balb/C mice, CD4+ T cells were isolated therefrom and were seeded at 1-2×10^6 per well into a 48-well tissue culture plate coated with anti-CD3 (5 ug/ml) and anti-CD28 (1 ug/ml). At this time, the culture medium was incubated with IL-2 (20 ng/ml), IL-4 (100 ng/ml), anti-IFNγ (10 ug/ml), anti-IL12 (10 ug/ml), and a derivative of 1 nM for two days, transferred to a new tissue culture plate, and further cultured for three days to induce differentiation into Th2 cells. After replacing with a new medium containing anti-IFNγ (10 ug/ml), anti-IL12 (10 ug/ml) and a derivative of 1 nM, polarization of Th2 cells was induced using PMA and A23187. After two days of culture, the cells were centrifuged and the culture medium was taken to perform IL-5 ELISA. IL-5 ELISA was performed according to the test method of the kit manufacturer.

SARS-COV-2 = test: microbe, parasite or virus in culture; type: cell-based; parameters: SI (Selectivity Index, CC50/IC50): unit not given here; conditions: for SI (Selectivity Index, CC50/IC50): SARS-COV-2, values >50 assumed to be 50; for IC50: read-out: SARS-COV-2 inhibition (IC50)
[2] = Th2 cells from mouse splenocytes, compound 1 nM
[3] = Severe acute respiratory syndrome coronavirus 2, Vero cells, 24 hours infection
[4] = Severe acute respiratory syndrome coronavirus 2, Vero, 24 h

Row | SMILES | CC50 (in vitro) | inhibition at 0.001 µM [1, 2] | SI (Selectivity Index, CC50/IC50) (SARS-COV-2) | IC50 (SARS-COV-2; [3]) | inhibition at 0.001 µM ([1]; Mus musculus) | IC50 (SARS-COV-2; [4])
1 | COc1cc2cc3c(c(-c4cnc(N(C)C(C)C)nc4)c2cc1OC)C(=O)OC3 [Example 23, 9-(2-(isopropyl(methyl)amino)pyrimidin-5-yl)-6,7-dimethoxynaphtho[2,3-c]furan-1(3H)-one] | > 50 µM | 68.2% | 61.34 | 0.08 µM |  | 
2 | COc1cc2cc3c(c(-c4cnc5ccccc5c4)c2cc1OC)C(=O)OC3 [Example 46, 6,7-dimethoxy-9-(quinolin-3-yl)naphtho[2,3-c]furan-1(3H)-one] | > 50 µM | 50.4% | 512.00 | 0.1 µM |  | 
3 | COc1cc2cc3c(c(-c4cnc(OCCN5CCOCC5)nc4)c2cc1OC)C(=O)OC3 [Example 13, 6,7-dimethoxy-9-(2-(2-morpholinoethoxy)pyrimidin-5-yl)naphtho[2,3-c]furan-1(3H)-one] | > 50 µM | 67.7% | 1.00 | > 50 µM |  | 
4 | CCCCCCOCCN(CCCCCC)c1ncc(-c2c3c(cc4cc(OC)c(OC)cc24)COC3=O)cn1 [Example 48, 9-(2-(hexyl(2-(hexyloxy)ethyl)amino)pyrimidin-5-yl)-6,7-dimethoxynaphtho[2,3-c]furan-1(3H)-one] | > 50 µM | 58.1% | 2.55 | 19.6 µM |  | 
5 | COc1cc2cc3c(c(-c4cnc(O[C@H]5CN6CCC5CC6)nc4)c2cc1OC)C(=O)OC3 [Example 17, (R)-6,7-dimethoxy-9-(2-(quinuclidin-3-yloxy)pyrimidin-5-yl)naphtho[2,3-c]furan-1(3H)-one] | > 50 µM |  | 1.59 |  | 55.2% | 31.4 µM
6 | COc1cc2cc3c(c(-c4cnc(Nc5ccc(C)c(C)c5)nc4)c2cc1OC)C(=O)OC3 [Example 14, 9-(2-((3,4-dimethylphenyl)amino)pyrimidin-5-yl)-6,7-dimethoxynaphtho[2,3-c]furan-1(3H)-one] | > 50 µM | 58.9% | 3.31 | 15.1 µM |  | 
7 | CCOC(=O)C1CCCN(c2ncc(-c3c4c(cc5cc(OC)c(OC)cc35)COC4=O)cn2)C1 (stereo not drawn) [Example 15, Ethyl 1-(5-(6,7-dimethoxy-3-oxo-1,3-dihydronaphtho[2,3-c]furan-4-yl)pyrimidin-2-yl) piperidin-3-carboxylate] | > 50 µM | 82.9% | 11.37 | 4.4 µM |  | 
8 | COc1cc2cc3c(c(-c4ccc5oc6ccccc6c5c4)c2cc1OC)C(=O)OC3 [Example 43, 9-(dibenzo[b,d]furan-2-yl)-6,7-dimethoxynaphtho[2,3-c]furan-1(3H)-one] | > 50 µM | 65.9% | 1.00 | > 50 µM |  | 
9 | COC(=O)[C@@H](C)NC(=O)[C@@H]1CCCN1c1ncc(-c2c3c(cc4cc(OC)c(OC)cc24)COC3=O)cn1 [Example 38, Methyl (5-(6,7-dimethoxy-3-oxo-1,3-dihydronaphtho[2,3-c]furan-4-yl)pyrimidin-2-yl)-L-prolyl-D-alaninate] |  | 62.8% |  |  |  | 
10 | CCOC(=O)CNC(=O)[C@@H]1CCCN1c1ncc(-c2c3c(cc4cc(OC)c(OC)cc24)COC3=O)cn1 [Example 45, Ethyl (5-(6,7-dimethoxy-3-oxo-1,3-dihydronaphtho[2,3-c]furan-4-yl)pyrimidin-2-yl)-L-proglycinate] |  | 64.2% |  |  |  | 
11 | COc1cc2cc3c(c(-c4cnc(NCCCn5ccnc5)nc4)c2cc1OC)C(=O)OC3 [Example 16, 9-(2-((3-(1H-imidazol-1-yl)propyl)amino)pyrimidin-5-yl)-6,7-dimethoxynaphtho[2,3-c]furan-1(3H)-one] | > 50 µM | 70.8% | 1.6 | 31.2 µM |  | 
12 | COc1cc2cc3c(c(-c4cnc(Oc5ccc6c(c5)OCO6)nc4)c2cc1OC)C(=O)OC3 [Example 20, 9-(2-(benzo[d][1,3]dioxol-5-yloxy)pyrimidin-5-yl)-6,7-dimethoxynaphtho[2,3-c]furan-1(3H)-one] | > 50 µM | 40.8% | 1.00 | > 50 µM |  | 
13 | COc1cc2cc3c(c(N[C@H]4CCc5c(cccc5OC)C4)c2cc1OC)C(=O)OC3 [Example 1, (S)-6,7-dimethoxy-9-((5-methoxy-1,2,3,4-tetrahydronaphthalen-2-yl)amino)naphtho[2,3-c]furan-1(3H)-one] | > 50 µM | 61.9% | 1.00 | > 50 µM |  | 
14 | CCOC(=O)[C@@H]1CCCN1c1ncc(-c2c3c(cc4cc(OC)c(OC)cc24)COC3=O)cn1 [Example 19, (S)ethyl 1-(5-(6,7-dimethoxy-3-oxo-1,3-dihydronaphtho[2,3-c]furan-4-yl)pyrimidin-2-yl)pyrrolidin-2-carboxylate] | > 50 µM | 92.3% | 1.60 | 31.3 µM |  | 
15 | CCOC(=O)CNc1ncc(-c2c3c(cc4cc(OC)c(OC)cc24)COC3=O)cn1 [Example 44, Ethyl (5-(6,7-dimethoxy-3-oxo-1,3-dihydronaphtho[2,3-c]furan-4-yl)pyrimidin-2-yl)glycinate] |  | 58.3% |  |  |  | 
16 | COc1cc2cc3c(c(-c4cnc(N[C@H]5CCc6c(cccc6OC)C5)nc4)c2cc1OC)C(=O)OC3 [Example 22, (S)-6,7-dimethoxy-9-(2-((5-methoxy-1,2,3,4-tetrahydronaphthalen-2-yl)amino)pyrimidin-5-yl)naphtho[2,3-c]furan-1(3H)-one] | > 50 µM | 59.9% | 10.64 | 4.7 µM |  | 
17 | CCCOCCN(CCC)c1ncc(-c2c3c(cc4cc(OC)c(OC)cc24)COC3=O)cn1 [Example 42, 6,7-dimethoxy-9-(2-((2-propoxyethyl)(propyl)amino)pyrimidin-5-yl)naphtho[2,3-c]furan-1(3H)-one] | > 50 µM | 64.8% | 1.00 | > 50 µM |  | 
18 | COc1cc2cc3c(c(-c4cnc(N5CCC[C@H]5C(=O)N[C@@H](C)c5ccc(F)cc5)nc4)c2cc1OC)C(=O)OC3 [Example 39, (S)-1-(5-(6,7-dimethoxy-3-oxo-1,3-dihydronaphtho[2,3-c]furan-4-yl)pyrimidin-2-yl)-N—((S)-1-(4-fluorophenyl)ethyl)pyrrolidin-2-carboxamide] | > 50 µM | 47.7% | 1.98 | 13.6 µM |  | 
19 | COc1cc2cc3c(c(-c4ccc(N(C)Cc5ccc(C)o5)nc4)c2cc1OC)C(=O)OC3 [Example 179, 6,7-dimethoxy-9-(6-(methyl((5-methylfuran-2-yl)methyl)amino)pyridin-3-yl)naphtho[2,3-c]furan-1(3H)-one] | > 50 µM |  | 49.02 | 1.02 µM |  | 
20 | COc1cc2cc3c(c(-c4ccc(N5C(=O)OC[C@@H]5Cc5ccccc5)nc4)c2cc1OC)C(=O)OC3 [Example 211, (S)-4-benzyl-3-(5-(6,7-dimethoxy-3-oxo-1,3-dihydronaphtho[2,3-c]furan-4-yl)pyridin-2-yl) oxazolidin-2-one] | > 50 µM |  | 12.50 | 4 µM |  | 
21 | CNc1cccc(-c2c3c(cc4cc(OC)c(OC)cc24)COC3=O)c1 [Example 257, 6,7-dimethoxy-9-(3-(methylamino)phenyl)naphtho[2,3-c]furan-1(3H)-one] | > 50 µM |  | 6.24 | 8.01 µM |  | 
22 | COc1cc2cc3c(c(-c4ccnc(Cl)c4)c2cc1OC)C(=O)OC3 [Example 184, 9-(2-chloropyridin-4-yl)-6,7-dimethoxynaphtho[2,3-c]furan-1(3H)-one] | > 50 µM |  | 1.0 | > 50 µM |  | 
23 | COc1cc2cc3c(c(-c4ccc(N(C)CCC5OCCO5)nc4)c2cc1OC)C(=O)OC3 [Example 161, 9-(6-((2-(1,3-dioxolan-2-yl)ethyl)(methyl)amino)pyridin-3-yl)-6,7-dimethoxynaphtho[2,3-c]furan-1(3H)-one] | > 50 µM |  | 7.74 | 6.46 µM |  | 
24 | COc1cc2cc3c(c(-c4ccc(N5CCC(Cl)CC5)nc4)c2cc1OC)C(=O)OC3 [Example 142, 9-(6-(4-chloropiperidin-1-yl)pyridin-3-yl)-6,7-dimethoxynaphtho[2,3-c]furan-1(3H)-one] | > 50 µM |  | 25.00 | 2 µM |  | 
25 | COc1cc2cc3c(c(-c4ccc(N(C)c5ccc(S)cc5)nc4)c2cc1OC)C(=O)OC3.Cl [Example 239, 9-(6-((4-mercaptophenyl)(methyl)amino)pyridin-3-yl)-6,7-dimethoxynaphtho[2,3-c]furan-1(3H)-one] | > 50 µM |  | 1.00 |  |  | > 50 µM
26 | COc1cc2cc3c(c(-c4cnc(N(C)C)nc4)c2cc1OC)C(=O)OC3 [Example 11, 9-(2-(dimethylamino)pyrimidin-5-yl)-6,7-dimethoxynaphtho[2,3-c]furan-1(3H)-one] | > 50 µM |  | 309.03 | 0.16 µM |  | 
